Reference: ChEMBL document CHEMBL1201862, “PubChem BioAssay data set” (2004)
Activity calls are given as the source filed them.

Legend:
[1] = target: Glyceraldehyde-3-phosphate dehydrogenase (Homo sapiens, UniProt P04406)
[2] = target: T1, Alkaline phosphatase, tissue-nonspecific isozyme (Homo sapiens, UniProt P05186); assay: potency against alkaline phosphatase TNAP – biochemical, luminescent, dose response, SAR follow-up (AID 1056)
T1 sequence (P05186 whole entry): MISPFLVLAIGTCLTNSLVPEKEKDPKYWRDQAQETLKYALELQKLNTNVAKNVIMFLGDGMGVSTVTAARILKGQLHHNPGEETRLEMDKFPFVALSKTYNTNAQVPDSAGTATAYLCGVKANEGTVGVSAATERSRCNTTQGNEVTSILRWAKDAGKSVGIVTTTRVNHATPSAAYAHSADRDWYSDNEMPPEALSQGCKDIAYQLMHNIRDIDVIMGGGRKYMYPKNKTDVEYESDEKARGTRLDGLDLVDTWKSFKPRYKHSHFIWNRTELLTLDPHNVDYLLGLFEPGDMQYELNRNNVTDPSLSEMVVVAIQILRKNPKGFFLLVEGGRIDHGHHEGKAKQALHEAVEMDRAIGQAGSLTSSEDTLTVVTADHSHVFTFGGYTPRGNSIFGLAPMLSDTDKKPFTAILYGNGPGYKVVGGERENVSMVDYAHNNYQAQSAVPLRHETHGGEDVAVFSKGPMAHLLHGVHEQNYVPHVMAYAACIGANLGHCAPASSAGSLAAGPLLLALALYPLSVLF

[3] = target: Peroxisome proliferator-activated receptor gamma/Nuclear receptor coactivator 1 (Homo sapiens, UniProt P37231); assay: (§1) TR-FRET dose response biochemical High Throughput Screening assay for agonists of the steroid receptor coactivator 1 (SRC-1) recruitment by the peroxisome proliferator-activated receptor gamma (PPAR gamma): non-selective agonists. [Related pubchem assays (depositor defined):AID1300, AID1808, AID504735, AID631]; format: protein assay
[4] = target: Peroxisome proliferator-activated receptor gamma/Nuclear receptor coactivator 3 (Homo sapiens, UniProt P37231); assay: as §1, with “3 (SRC-3)” for “1 (SRC-1)”, “assays: 1301 (Confirmation screen.), 1048 (Primary screen.)]” for “assays (depositor defined):AID1300, AID1808, AID504735, AID631]”; format: functional
[5] = target: Peroxisome proliferator-activated receptor gamma/Nuclear receptor coactivator 2 (Homo sapiens, UniProt P37231); assay: TR-FRET dose response biochemical High Throughput Screening assay for agonists of the steroid receptor coactivator 2 (SRC-2) recruitment by the peroxisome proliferator-activated receptor gamma (PPAR gamma): non-selective agonists. [Related pubchem assays: 1297, 1032 ]; format: functional
[6] = NIH3T3 cell viability loss – ATP luminescence, mouse fibroblasts, counter-screen, dose response (AID 2010); format: functional, cell-based;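 also: cells exposed to compound for about 90 hours before reading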
[7] = target: Serine/threonine-protein phosphatase PP1-alpha catalytic subunit (Homo sapiens, UniProt P62136); assay: inhibition of protein phosphatase 1 activity – biochemical, fluorescence, dose response (AID 2403);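 also: phosphatase turnover of OMFP into fluorescent 3-O-methylfluorescein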
[8] = target: T2, Serine/threonine-protein phosphatase (Homo sapiens, UniProt Q9BPW0); assay: Counterscreen for inhibitors of PP1: fluorescence-based biochemical high throughput dose response assay to identify inhibitors of Protein Phosphatase 5 (PP5). [Related pubchem assays: 2034 (Summary (PP5 inhibitors)), 1987 (PP5 inhibitors in singlate), 2235 (PP1 inhibitors in singlate)]
T2 sequence (Q9BPW0 whole entry): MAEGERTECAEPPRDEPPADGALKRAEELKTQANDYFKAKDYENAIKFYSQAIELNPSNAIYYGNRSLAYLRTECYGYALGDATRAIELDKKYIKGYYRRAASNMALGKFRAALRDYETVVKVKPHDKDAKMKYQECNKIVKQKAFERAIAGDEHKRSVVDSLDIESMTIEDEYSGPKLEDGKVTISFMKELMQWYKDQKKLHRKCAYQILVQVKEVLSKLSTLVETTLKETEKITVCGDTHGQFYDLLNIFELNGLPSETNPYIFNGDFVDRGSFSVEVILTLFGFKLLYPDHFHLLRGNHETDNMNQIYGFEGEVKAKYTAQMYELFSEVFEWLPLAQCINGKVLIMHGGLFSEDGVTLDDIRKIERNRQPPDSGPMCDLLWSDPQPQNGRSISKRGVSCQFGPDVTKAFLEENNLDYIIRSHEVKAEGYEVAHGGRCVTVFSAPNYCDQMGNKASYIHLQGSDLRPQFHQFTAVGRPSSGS

[9] = Trypanosoma cruzi growth suppression in host cells – NIH3T3 host cells, beta-gal luminescence, confirmation (AID 2044); format: functional, cell-based;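 also: intracellular parasites grown in NIH/3T3 mouse fibroblasts as host cells; luminescent beta-galactosidase reporter signal from transgenic T. cruzi replicating inside host cells; inhibitors lower the luminescence signal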
Bcl-2-related protein A1 = target: T3, Bcl-2-related protein A1 (Mus musculus, UniProt Q07440); format: functional;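 also: confirmatory dose–response counterscreen on Bfl-1, used to check hits from a UBC13 polyubiquitin inhibitor campaign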
T3 sequence (Q07440 whole entry): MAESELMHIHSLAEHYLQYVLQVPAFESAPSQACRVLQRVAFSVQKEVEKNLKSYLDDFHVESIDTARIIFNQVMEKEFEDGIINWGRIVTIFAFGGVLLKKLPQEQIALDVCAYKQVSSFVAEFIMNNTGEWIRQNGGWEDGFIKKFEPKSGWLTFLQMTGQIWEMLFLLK

[10] = target: T4, Sentrin-specific protease 8 (Homo sapiens, UniProt Q96LD8); format: functional
T4 sequence (Q96LD8 whole entry): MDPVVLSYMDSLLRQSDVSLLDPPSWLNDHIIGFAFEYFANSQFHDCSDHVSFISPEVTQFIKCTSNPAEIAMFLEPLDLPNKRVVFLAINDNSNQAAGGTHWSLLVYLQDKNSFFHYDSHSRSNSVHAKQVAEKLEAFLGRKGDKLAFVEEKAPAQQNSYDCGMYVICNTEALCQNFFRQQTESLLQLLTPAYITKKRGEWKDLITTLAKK

[11] = target: T4, Sentrin-specific protease 8; format: functional; remark: listed apart in the source
Nonstructural protein 1 = Nonstructural protein 1 (Influenza A virus, UniProt Q194T2); format: functional, Influenza A virus (A/California/07/2009(H1N1))
[12] = target: T5, Ubiquitin-conjugating enzyme E2 N (Homo sapiens, UniProt P61088); format: functional
T5 sequence (P61088 whole entry): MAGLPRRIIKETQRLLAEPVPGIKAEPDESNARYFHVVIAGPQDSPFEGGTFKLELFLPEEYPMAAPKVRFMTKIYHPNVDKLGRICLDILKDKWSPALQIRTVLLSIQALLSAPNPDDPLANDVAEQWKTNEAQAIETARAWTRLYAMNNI

[13] = target: T5, Ubiquitin-conjugating enzyme E2 N; format: functional; remark: listed apart in the source
[14] = target: T6, DNA repair protein RAD52 homolog (Homo sapiens, UniProt P43351); format: functional, biochemical
T6 sequence (P43351 whole entry): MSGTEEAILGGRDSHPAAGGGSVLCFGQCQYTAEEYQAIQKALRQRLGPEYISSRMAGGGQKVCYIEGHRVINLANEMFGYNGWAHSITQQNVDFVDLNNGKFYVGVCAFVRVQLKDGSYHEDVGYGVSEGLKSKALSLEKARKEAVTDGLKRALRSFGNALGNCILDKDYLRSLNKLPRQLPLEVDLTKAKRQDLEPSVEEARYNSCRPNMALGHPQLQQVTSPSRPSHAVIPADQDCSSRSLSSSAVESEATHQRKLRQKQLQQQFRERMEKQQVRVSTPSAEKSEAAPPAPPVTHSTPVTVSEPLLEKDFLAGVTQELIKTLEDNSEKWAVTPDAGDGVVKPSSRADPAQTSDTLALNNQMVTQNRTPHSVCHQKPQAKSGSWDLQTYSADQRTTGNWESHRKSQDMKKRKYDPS

[15] = target: T7, Female germline-specific tumor suppressor gld-1 (Caenorhabditis elegans, UniProt Q17339); assay: blockers of GLD-1/TGE RNA complex formation – biochemical, fluorescence polarization, C. elegans, dose response (AID 2802);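 also: fluorescence polarization of labeled TGE RNA bound by purified gld-1 protein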
T7 sequence (Q17339 whole entry): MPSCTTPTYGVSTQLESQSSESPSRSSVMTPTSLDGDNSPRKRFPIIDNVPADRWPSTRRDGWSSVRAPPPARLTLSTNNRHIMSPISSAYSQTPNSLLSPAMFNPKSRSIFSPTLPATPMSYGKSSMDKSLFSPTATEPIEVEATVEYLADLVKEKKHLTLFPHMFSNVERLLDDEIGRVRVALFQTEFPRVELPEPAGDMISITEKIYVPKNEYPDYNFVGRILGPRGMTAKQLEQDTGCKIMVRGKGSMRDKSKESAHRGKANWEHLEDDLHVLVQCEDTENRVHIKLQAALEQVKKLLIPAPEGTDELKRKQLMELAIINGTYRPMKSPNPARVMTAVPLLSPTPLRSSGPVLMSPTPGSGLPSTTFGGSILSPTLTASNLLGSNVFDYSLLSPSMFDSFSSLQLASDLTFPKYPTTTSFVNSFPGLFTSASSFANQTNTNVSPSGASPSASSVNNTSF

Genome polyprotein = Genome polyprotein (dengue virus type 2, UniProt P29990); assay: flavivirus cap methylation enzyme inhibition – biochemical, confirmation dose response, primary screen (AID 588689); format: functional
Protein Rev = target: T8, Protein Rev (Human immunodeficiency virus type 1 group M subtype B (isolate HXB2)(HIV-1), UniProt P04618); assay: blockers of HIV Rev/RRE RNA complex – biochemical, fluorescence polarization, HIV-1, dose response (AID 434976); design: species or system Human immunodeficiency virus 1
T8 sequence (P04618 whole entry): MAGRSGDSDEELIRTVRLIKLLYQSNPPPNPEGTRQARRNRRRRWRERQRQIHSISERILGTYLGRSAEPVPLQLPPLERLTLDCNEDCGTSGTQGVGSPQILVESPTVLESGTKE

[16] = HEK-293T cell viability reduction – luminescence, B-cell screen hits, cytotoxicity control for BCR NF-kB inhibitor project, dose response (AID 489021); format: functional, cell-based;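 also: HEK-293T cells carrying an NF-kB luciferase reporter; cells exposed to compound for about 14 hours before viability readout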
Coagulation factor XII = target: T9, Coagulation factor XII (Homo sapiens, UniProt P00748); format: functional;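 also: activated factor XIIa alpha cleaving a fluorogenic AMC peptide substrate; inhibitor potency from loss of enzyme activity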
T9 sequence (P00748 whole entry): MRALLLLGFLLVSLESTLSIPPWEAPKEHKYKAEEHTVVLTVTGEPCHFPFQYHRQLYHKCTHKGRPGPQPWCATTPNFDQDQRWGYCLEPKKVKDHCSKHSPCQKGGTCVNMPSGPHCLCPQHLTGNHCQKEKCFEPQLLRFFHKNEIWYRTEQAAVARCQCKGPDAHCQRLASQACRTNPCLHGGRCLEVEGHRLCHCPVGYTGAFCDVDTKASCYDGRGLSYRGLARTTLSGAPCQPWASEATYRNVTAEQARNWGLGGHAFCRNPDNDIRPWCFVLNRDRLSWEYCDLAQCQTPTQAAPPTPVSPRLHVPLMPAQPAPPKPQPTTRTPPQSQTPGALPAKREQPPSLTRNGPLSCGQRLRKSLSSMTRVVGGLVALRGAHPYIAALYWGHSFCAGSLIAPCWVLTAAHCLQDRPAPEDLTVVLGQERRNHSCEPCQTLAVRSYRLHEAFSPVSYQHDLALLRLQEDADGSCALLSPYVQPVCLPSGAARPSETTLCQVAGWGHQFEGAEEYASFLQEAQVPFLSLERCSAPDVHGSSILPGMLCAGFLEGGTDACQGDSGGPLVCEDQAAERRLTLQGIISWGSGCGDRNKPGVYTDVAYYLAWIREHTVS

Peroxisome proliferator-activated receptor gamma/Nuclear receptor coactivator 2, sequence (P37231 whole entry): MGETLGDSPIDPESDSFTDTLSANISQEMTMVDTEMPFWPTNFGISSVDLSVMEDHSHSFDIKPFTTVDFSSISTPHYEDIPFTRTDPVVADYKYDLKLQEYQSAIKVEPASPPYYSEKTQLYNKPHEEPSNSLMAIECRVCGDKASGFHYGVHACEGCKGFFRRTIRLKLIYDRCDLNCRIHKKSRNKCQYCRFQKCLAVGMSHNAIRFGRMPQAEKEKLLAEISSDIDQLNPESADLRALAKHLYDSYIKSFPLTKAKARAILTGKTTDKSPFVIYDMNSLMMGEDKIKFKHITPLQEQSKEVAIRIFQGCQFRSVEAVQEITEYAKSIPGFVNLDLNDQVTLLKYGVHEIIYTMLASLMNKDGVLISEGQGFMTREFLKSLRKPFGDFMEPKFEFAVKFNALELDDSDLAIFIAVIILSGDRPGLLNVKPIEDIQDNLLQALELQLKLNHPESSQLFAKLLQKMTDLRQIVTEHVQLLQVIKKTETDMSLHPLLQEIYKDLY
Peroxisome proliferator-activated receptor gamma/Nuclear receptor coactivator 2, sequence (Q15596 whole entry, further chain): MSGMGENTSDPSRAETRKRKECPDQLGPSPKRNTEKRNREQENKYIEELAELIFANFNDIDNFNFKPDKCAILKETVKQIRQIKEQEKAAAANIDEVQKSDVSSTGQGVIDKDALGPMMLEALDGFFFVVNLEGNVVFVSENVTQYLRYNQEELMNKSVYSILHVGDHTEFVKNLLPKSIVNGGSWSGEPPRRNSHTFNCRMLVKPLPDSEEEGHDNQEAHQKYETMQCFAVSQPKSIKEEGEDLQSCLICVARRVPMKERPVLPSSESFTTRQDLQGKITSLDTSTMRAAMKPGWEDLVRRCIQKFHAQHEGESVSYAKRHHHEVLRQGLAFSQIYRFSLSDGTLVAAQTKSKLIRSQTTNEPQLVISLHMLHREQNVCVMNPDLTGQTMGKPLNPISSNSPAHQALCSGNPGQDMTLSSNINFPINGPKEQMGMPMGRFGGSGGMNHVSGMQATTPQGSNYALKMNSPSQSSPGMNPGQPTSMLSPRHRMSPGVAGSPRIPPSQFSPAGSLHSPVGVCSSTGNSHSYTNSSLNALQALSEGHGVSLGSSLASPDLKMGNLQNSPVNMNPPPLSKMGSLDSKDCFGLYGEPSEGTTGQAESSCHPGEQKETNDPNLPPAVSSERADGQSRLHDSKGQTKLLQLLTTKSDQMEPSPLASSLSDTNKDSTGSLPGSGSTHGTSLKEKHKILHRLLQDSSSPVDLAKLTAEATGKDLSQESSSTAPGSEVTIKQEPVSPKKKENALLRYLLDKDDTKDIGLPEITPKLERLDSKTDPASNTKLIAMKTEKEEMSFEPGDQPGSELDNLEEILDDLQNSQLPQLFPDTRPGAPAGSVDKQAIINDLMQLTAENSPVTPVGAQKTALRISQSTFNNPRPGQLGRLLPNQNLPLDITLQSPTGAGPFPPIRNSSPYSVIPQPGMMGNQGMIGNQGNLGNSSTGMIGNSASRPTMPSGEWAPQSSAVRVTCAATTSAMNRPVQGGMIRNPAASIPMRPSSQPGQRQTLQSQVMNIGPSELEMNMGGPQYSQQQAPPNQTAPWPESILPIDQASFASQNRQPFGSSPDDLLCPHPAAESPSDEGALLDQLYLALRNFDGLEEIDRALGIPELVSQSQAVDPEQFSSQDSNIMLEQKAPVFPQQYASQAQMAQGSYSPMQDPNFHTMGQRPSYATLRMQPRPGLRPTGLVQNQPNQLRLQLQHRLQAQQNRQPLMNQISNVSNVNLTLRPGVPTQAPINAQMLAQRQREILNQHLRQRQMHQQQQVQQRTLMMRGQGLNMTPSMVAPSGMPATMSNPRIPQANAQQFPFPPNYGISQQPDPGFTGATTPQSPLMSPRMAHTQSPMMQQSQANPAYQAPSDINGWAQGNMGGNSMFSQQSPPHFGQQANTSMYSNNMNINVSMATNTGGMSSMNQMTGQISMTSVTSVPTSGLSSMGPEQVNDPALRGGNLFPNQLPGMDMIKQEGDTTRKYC
Peroxisome proliferator-activated receptor gamma/Nuclear receptor coactivator 1, sequence (P37231 whole entry): as the sequence (P37231 whole entry) above
Peroxisome proliferator-activated receptor gamma/Nuclear receptor coactivator 1, sequence (Q15788 whole entry, further chain): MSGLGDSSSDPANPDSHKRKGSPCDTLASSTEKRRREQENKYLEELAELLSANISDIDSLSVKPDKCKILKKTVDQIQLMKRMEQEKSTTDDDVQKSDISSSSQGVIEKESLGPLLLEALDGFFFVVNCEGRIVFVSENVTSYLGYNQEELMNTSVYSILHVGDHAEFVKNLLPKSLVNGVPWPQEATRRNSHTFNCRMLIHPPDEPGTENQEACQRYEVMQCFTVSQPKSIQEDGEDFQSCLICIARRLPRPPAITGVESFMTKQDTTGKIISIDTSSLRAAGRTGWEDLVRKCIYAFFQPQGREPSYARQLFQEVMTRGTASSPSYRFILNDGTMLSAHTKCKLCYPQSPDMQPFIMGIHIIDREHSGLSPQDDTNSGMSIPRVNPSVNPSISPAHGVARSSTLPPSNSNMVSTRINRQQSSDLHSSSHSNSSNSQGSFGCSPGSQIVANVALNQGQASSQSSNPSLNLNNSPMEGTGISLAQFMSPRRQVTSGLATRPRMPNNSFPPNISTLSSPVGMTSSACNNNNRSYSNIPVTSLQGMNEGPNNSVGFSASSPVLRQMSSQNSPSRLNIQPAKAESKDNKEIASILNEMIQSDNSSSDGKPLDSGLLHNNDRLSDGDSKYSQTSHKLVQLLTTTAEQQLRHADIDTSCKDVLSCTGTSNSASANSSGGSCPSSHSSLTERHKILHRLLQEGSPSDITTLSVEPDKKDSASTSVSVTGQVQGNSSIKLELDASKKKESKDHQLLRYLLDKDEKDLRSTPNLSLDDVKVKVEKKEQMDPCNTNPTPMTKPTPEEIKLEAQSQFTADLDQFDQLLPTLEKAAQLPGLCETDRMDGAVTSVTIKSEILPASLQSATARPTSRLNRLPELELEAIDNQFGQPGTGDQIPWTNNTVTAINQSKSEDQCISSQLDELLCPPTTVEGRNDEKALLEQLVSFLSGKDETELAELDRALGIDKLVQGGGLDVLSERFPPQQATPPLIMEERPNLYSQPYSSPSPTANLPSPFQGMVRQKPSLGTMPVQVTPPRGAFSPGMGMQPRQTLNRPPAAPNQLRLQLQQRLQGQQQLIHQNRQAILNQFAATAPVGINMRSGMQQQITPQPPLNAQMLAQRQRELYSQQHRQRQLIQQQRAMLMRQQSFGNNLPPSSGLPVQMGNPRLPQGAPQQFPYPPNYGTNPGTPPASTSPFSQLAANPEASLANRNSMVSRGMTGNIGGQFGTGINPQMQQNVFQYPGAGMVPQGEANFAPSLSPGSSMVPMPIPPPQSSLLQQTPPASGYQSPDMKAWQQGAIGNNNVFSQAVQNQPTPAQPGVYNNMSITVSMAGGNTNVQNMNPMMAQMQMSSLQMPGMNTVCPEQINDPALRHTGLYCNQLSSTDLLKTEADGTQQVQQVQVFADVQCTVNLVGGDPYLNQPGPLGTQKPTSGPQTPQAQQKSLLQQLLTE
Glyceraldehyde-3-phosphate dehydrogenase, sequence (P04406 whole entry): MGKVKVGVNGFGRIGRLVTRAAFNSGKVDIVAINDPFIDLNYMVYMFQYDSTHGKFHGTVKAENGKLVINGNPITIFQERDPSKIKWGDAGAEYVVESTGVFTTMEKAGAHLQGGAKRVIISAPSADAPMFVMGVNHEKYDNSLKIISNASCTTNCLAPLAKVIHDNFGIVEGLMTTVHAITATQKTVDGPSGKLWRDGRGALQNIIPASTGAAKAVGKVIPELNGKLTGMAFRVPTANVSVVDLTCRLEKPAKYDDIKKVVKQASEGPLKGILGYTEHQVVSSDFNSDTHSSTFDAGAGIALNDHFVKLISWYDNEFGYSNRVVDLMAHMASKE
Serine/threonine-protein phosphatase PP1-alpha catalytic subunit, sequence (P62136 whole entry): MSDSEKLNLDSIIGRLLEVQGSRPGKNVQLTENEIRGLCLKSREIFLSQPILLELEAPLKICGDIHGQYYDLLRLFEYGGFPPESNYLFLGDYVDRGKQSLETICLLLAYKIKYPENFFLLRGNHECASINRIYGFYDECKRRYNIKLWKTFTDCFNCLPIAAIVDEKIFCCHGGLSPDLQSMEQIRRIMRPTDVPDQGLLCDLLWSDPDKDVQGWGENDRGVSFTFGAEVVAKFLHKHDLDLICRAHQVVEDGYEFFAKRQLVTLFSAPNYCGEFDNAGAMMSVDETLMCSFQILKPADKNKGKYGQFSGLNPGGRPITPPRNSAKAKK
Nonstructural protein 1, sequence (Q194T2 whole entry): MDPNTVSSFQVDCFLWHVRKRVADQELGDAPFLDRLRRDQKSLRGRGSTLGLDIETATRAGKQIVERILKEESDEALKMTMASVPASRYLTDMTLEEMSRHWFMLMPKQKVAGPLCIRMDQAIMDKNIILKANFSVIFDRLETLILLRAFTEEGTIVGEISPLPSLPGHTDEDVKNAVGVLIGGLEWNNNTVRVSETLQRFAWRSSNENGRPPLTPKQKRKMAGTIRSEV

SMILES: O=S(=O)(Nc1cnc2ccccc2c1)c1ccccc1
- IC50 [1]: > 100 µM (not active)
- IC50 [2]: > 100 µM (inactive)

SMILES: Cc1cc(N2C(=O)C(O)=C(C(=O)c3ccc(Cl)cc3)C2c2cccc(Br)c2)no1 (centres undefined)
- EC50 [3]: > 79.4 µM (inactive)
- EC50 [4]: > 79.4 µM (not active)
- EC50 [5]: 113 µM (not active)

SMILES: CCOC(=O)c1cnc(-n2nc(C)cc2C)nc1NCCc1ccccc1
- EC50 [6]: > 30 µM (not active)
- IC50 [7]: 6.96 µM (active)
- IC50 [8]: > 67 µM (not active)
- EC50 [9]: 2.04 µM (active)

SMILES: CN1CCN(c2cc(-c3cc(O)c4ncccc4c3)ccn2)CC1
- IC50 (Bcl-2-related protein A1): 12.5 µM (active)
- IC50 [10]: 6.88 µM (active)
- IC50 [11]: 5.17 µM (active)
- IC50 (Nonstructural protein 1): 9.85 µM (active)
- IC50 [12]: 15.6 µM (active)
- IC50 [13]: 10.8 µM (active)
- AC50 [14]: 1.58 µM (active)

SMILES: Cc1ccc(C(=O)N/N=C/c2ccc(-c3ccc(Br)cc3[N+](=O)[O-])o2)o1
- IC50 [15]: 10.4 µM (inactive)
- IC50 (Genome polyprotein): > 100 µM (active)
- IC50 (Protein Rev): > 25.1 µM (not active)

SMILES: Cn1c(=O)cc(SCC(=O)N2CCCC2)c2cc(Cl)ccc21
- EC50 [3]: > 79.4 µM (inactive)
- EC50 [4]: > 79.4 µM (not active)
- IC50 [16]: > 80 µM (inactive)
- EC50 [5]: > 79.4 µM (not active)

SMILES: COc1cnc(-c2ccccn2)nc1Oc1cccc(Cl)c1
- IC50 [7]: 8.46 µM (active)
- IC50 [8]: > 67 µM (not active)

SMILES: CCCCc1nc2sc3c(SCC(=O)NCc4ccco4)ncnc3c2c2c1CCC2
- EC50 [3]: 78.6 µM (inactive)
- EC50 [4]: > 79.4 µM (not active)
- EC50 [5]: 58.8 µM (not active)

SMILES: CCOc1cc(CO)ccc1OCC(=O)N1CCCCC1
- IC50 (Coagulation factor XII): > 50 µM (inactive)

SMILES: COc1ccccc1CC(=O)NN1C(=O)c2ccccc2C1=O
- IC50 (Coagulation factor XII): > 50 µM (inactive)

SMILES: CC(=O)Nc1nnc(S(C)(=O)=O)[nH]1
- IC50 [1]: > 100 µM (not active)
- IC50 [2]: > 100 µM (inactive)

SMILES: O=C1c2ccccc2C(=O)N1c1nnc(Cc2ccc(F)cc2)[nH]1
- IC50 [1]: > 100 µM (not active)
- IC50 [2]: 4.66 µM (active)
